# Measurements as given in patent publication US20110144125A1, “Anti-Arrhythmia Agents, Methods of Their Use, Methods of Their Identification and Kits Therefore” (THE UAB RESEARCH FOUNDATION, priority 2008, published 2011).
# Experiments:
# [1] = test system: right ventricular muscle strips and right or left ventricular papillary muscles; assay: Ventricular muscle model of SMA and STA; set-up: species or system rat; details: paced at 0.5 Hz, added to the superfusate in appropriate amounts
# Description: To further establish this model as a general test for arrhythmic and anti-arrhythmic agents, right ventricular muscle strips and right or left ventricular papillary muscles were isolated from anesthetized rats as cardiac muscle exemplars using methods known to persons skilled in the art. Additional exemplars could include ventricular or atrial conduction system cells and the SAN itself. These muscles were then superfused as described above and paced at 0.5 Hz.
# [2] = test system: rat left atrial appendage; assay: 2-APB-induced spontaneous mechanical activity (SMA/SMEs) in isolated superfused rat left atria / left atrial appendage; details: 3 Hz paced; data not shown
# Protocol: Left atria were isolated from male Sprague-Dawley rats (325 to 400 g) under IP pentobarbital anesthesia (0.1 g/kg). Isolated left atria were superfused at 30° C. in Krebs-Henseleit (KH) buffer of the following mM composition: NaCl, 118; NaHCO3, 27; KCl, 4.8; MgSO4, 1.2; KH2PO4, 1.0; CaCl2, 1.8; and glucose, 11.1. Nearly isometric left atrial forces of contraction were measured as described.
# Isolated superfused left atria were paced at 3 Hz. 2-APB was added to atrial superfusates from 0.015 or 0.15M DMSO stock solutions to achieve concentrations of 0, 2, 7.5, 15, or 22 μM (n=5 to 10 atria per concentration). Changes in atrial mechanical force were recorded during a subsequent 15 min superfusion.
# Two groups of 5 to 6, 3 Hz paced atria were superfused in KH and exposed to 0 or 15 μM 2-APB for 10 min. The pacing stimulus was interrupted for 5 min and the number of spontaneous mechanical events (SMEs), defined as increases in mechanical force occurring in the absence of pacing, were measured as was the postrest potentiation response (PRP).
# To determine whether diastolic interval affected the interaction between 2-APB and left atria, atrial pacing was decreased to 0.1 Hz, and 0, 7.5, or 22 μM 2-APB was added to the superfusate (n=6-8 per group). Superfusions continued for 15 min, and changes in atrial mechanical function were observed.
# To establish whether SMA was reversible, atria (n=7) were paced at 0.1 Hz, exposed to 15 μM 2-APB for 10 min, and washed with KH. The effect of removing 2-APB on atrial mechanical function was recorded.
# To test whether an anion transport inhibitor affected SMA, atria (n=7) were paced at 0.1 Hz in KH and exposed to 15 μM 2-APB. Following the appearance of SMA, they were titrated with 100 to 400 μM DIDS for 3 to 5 min at each concentration. Whether SMA occurred at the end of each titration period was recorded.
# Left atria (n=10 per group) were paced at 0.1 Hz and treated with (i) 20 μM 2-APB for 10 min, (ii) with 30 nM isoproterenol for 5 min followed by 20 μM 2-APB for 10 min, and (iii) with 3 μM forskolin for 5 min followed by 20 μM 2-APB for 10 min.
# The appendages then were titrated with increasing concentrations of 2-APB, and SMA was measured and recorded.
# (§1) To determine the anti-arrhythmic activity of gossypol, isolated rat left atrial appendage and right ventricular muscle strips were used as model systems, as described above. Heart muscle was exposed to 20 μM 2-APB for 10 min to induce SMA, and rates of SMA were recorded as a percentage of initial SMA. The muscles then were titrated with up to 5 increasing concentrations of gossypol. Rates of SMA were recorded ˜10 min after the addition of concentration of the polyphenol.
# To determine whether EGCG can prevent arrhythmia, rat left atrial appendages (n=9) were exposed to 20 μM 2-APB and rates of SMA were recorded. Groups of muscles (n=6 per) were pre-treated with 30 μM EGCG for 10 min following which they were exposed to 2-APB. Rates of SMA were recorded 10 min later.
# as §1, with “whether EGCG is effective to reverse arrhythmia,” for “the anti-arrhythmic activity of gossypol,”, “Rat left atrial appendages were” for “Heart muscle was”, “left atrial appendages” for “muscles”, “the following polyphenols: EGCG, gossypol, resveratrol, and quercetin.” for “gossypol.”
# To determine whether EGC can prevent arrhythmia, left atrial appendages (n=9) were exposed to 20 μM 2-APB and rates of SMA were recorded. Groups of appendages (n=6 per) were pre-treated with 30 μM EGC for 10 min following which they were exposed to 2-APB.
# [3] = test system: rat left atrial appendage; assay: ATXII-induced triggered activity and transition to automaticity in left atrial appendage
# Description: There are two types of afterdepolarizations; early afterdepolarizations (EADs) that occur early during repolarization and delayed afterdepolarizations (DADs) that occur in fully repolarized, resting myocytes (FIG. 4). Both EADs and DADs are defined as “triggered” activities as they require a preceding normal action potential to occur (FIG. 3B). One model to elicit EADs is to expose heart muscle or myocytes to Anemonia sulcata Toxin II (ATX II). This 47 amino acid peptide specifically enhances late sodium current and prolongs the action potential duration (FIG. 3D; middle panel). This leads to calcium loading of heart muscle followed by EADs during phase 2 or phase 3 of the action potential (FIGS. 3D & 5). These EADs, if of sufficient magnitude, produce ectopic mechanical events (FIG. 3B; ‡).
# In embodiments of the assay an agent to induce arrhythmia will be introduced in the muscle. The arrhythmic agent may be chemical or physical. If the agent is chemical, it can be any chemical agent known by those skilled in the art to induce arrhythmia. The chemical agent will be introduced at a concentration sufficient to induce arrhythmia. If a certain type of arrhythmia is the subject of the assay (for example, triggered activity, tachycardia or any other type of arrhythmia), then the agent should be present at a concentration sufficient to produce the certain type of arrhythmia. One acceptable agent is anemone toxin II (“ATX II,”), the toxin of Anemone sulcata. ATX II is a sodium channel regulator.
# It was tested whether the altered voltage-independent calcium homeostasis which 2-APB provokes is sufficient to initiate frank automaticity from triggered activity.
Molecule,ventricular SMA [1],SMEs per min compared with 2-APB [2],ATXII concentration provoking automatic activity [3],"effect on action potential ([3]; 30 nM ATXII, paced at 1 Hz)",ATXII concentration inducing triggered activity / aftercontractions ([3]; paced left atrial appendages)
c1ccc(B(OB(c2ccccc2)c2ccccc2)c2ccccc2)cc1 [diphenyl boronic anhydride],ventricular SMA was observed,gave similar results,–,–,–
ATXII: 47 amino acid peptide that enhances late sodium current and prolongs action potential duration,–,–,> 50 nM,prolongs action potential duration,< 50 nM
